Assay results: patent US20060111848A1, “Identification and use of cofactor independent phosphoglycerate mutase as a drug target for pathogenic organisms and treatment of the same” (New England Biolabs, Inc., priority 2003, published 2006)

How the values were obtained:
[1] = biological target: T1, B. malayi iPGM (Brugia malayi, UniProt Q4VWF8); assay: PGM activity, spectrophotometric NADH-coupled assay, recombinant B. malayi iPGM; type: biochemical; conditions: recombinant enzyme
T1 construct: The full-length iPGMs from C. elegans, B. malayi and Wolbachia were overexpressed in E. coli; His tag (C); made in house; host or cells: E. coli ER2566
T1 sequence (Q4VWF8 whole entry): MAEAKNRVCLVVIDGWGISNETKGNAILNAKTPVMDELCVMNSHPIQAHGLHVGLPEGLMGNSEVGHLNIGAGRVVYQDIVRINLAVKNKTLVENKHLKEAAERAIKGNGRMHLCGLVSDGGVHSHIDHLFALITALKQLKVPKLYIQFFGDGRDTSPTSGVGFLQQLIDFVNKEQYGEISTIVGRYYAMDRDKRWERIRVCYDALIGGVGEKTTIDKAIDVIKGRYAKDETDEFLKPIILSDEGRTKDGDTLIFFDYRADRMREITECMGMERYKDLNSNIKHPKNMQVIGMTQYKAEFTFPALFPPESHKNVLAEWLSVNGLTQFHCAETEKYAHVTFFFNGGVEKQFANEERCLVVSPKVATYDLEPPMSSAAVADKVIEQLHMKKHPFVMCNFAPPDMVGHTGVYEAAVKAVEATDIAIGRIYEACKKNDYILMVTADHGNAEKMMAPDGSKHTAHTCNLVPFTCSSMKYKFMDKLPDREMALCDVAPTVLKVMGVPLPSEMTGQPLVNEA
Protocol: (§1) The purified CeiPGM, WoliPGM and BmiPGM proteins described in Example 4 were assayed for PGM activity and found to be active. Activity was measured in forward and reverse directions using a standard spectrophotometric assay (White and Fothergill-Gilmore, European J. Biochem. 207:709-714 1992)) as outlined in FIG. 9. In the forward reaction (glycolytic), the conversion of 3-PG to 2-PG is measured, whereas in the reverse direction (gluconeogenic), the conversion of 2-PG to 3-PG is assayed. In both cases, PGM activity was determined indirectly by measuring the consumption of NADH, which is monitored at 340 nm. The amount of NADH being oxidized to NAD corresponds to the amount of enzyme product (2-PG in the forward direction or 3-PG in the reverse direction) yielded in the PGM reaction. Reactions were performed at 30° C. for 5 minutes with data collected at 10-second intervals using a Beckman DU 640 spectrophotometer. In the forward reaction, iPGM was added to 1 ml assay buffer (30 mM Tris-HCl pH 7.0, 5 mM MgSO4, 20 mM KCl, 0.15 mM NADH) containing 1 mM ADP, 10 mM 3-PGA (Sigma P8877, Sigma-Aldrich, St. Louis, Mo.), 2.5 U each of enolase (Sigma E6126, EC 4.2.1.11, Sigma-Aldrich, St. Louis, Mo.), pyruvate kinase (Sigma P7768, EC 2.7.1.40, Sigma-Aldrich, St. Louis, Mo.) and lactate dehydrogenase (Sigma L2518; EC 1.1.1.27, Sigma-Aldrich, St. Louis, Mo.). […]

[2] = system: dPGM; conditions: cited from earlier work
[3] = system: Wolbachia iPGM; assay: PGM activity, spectrophotometric NADH-coupled assay, recombinant Wolbachia iPGM; type: biochemical; conditions: recombinant enzyme
Protocol: as §1

[4] = system: iPGM; conditions: cited from earlier work
[5] = biological target: T2, C. elegans iPGM (Caenorhabditis elegans, UniProt G5EFZ1); assay: PGM activity, spectrophotometric NADH-coupled assay, recombinant C. elegans iPGM; type: biochemical; conditions: recombinant enzyme
T2 construct: The full-length iPGMs from C. elegans, B. malayi and Wolbachia were overexpressed in E. coli; His tag (C); made in house; host or cells: E. coli ER2566
T2 sequence (G5EFZ1 1-521 isoform G5EFZ1-2): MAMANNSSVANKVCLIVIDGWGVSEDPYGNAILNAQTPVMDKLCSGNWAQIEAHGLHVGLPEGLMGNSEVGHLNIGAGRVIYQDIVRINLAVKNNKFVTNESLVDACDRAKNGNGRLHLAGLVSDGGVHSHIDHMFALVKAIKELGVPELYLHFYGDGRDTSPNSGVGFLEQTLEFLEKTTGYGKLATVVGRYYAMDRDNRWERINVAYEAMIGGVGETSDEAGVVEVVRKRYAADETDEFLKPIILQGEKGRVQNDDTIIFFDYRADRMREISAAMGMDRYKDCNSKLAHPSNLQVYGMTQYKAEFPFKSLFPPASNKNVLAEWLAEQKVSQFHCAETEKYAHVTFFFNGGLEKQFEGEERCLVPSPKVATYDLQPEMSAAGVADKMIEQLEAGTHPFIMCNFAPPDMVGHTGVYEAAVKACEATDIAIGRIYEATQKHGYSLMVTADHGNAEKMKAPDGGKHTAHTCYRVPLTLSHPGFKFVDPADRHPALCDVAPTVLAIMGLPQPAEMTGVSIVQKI
Protocol: as §1

[O]=[V]([O-])([O-])[O-] [vanadate]
inhibition of PGM activity [1]: not inhibited
effect on dPGM activity [2]: inhibited
inhibition of PGM activity [3]: not inhibited
effect on iPGM activity [4]: insensitive
inhibition of PGM activity [5]: not inhibited
